In one series the test system is flea midgut proteases. The experiment in a line: Protease substrate gel analysis of flea midguts with protease inhibitors in the incubation buffers. Format: biochemical. The conditions noted are these: unfed and fed female midguts; AEBSF 1 mM, soybean trypsin inhibitor 100 μg/ml, leupeptin 10 μg/ml in all incubation buffers. As to the method: Protease substrate gels (available from Novex, San Diego, Calif., as Novex Zymogels) were 10% polyacrylamide-SDS gels with 0.1% gelatin. Samples and gels were processed according to Novex instructions. Briefly, samples were diluted in SDS-PAGE sample buffer without reducing agents. Tris-glycine SDS-PAGE was carried out by standard procedures. After electrophoresis, gels were incubated in 0.25% Triton X-100 at room temperature for 30 minutes (min), then in developing buffer (50 mM (millimolar) Tris-HCl pH 7.0, 5 mM CaCl2, 0.02% Brij 35, 0.2 M (molar) NaCl) at room temperature for 30 min, and then incubated with fresh developing buffer at 37° C., usually overnight. Gels were then stained 30 min in 0.5% coomassie R-250, 40% methanol, 10% acetic acid and destained in 40% methanol, 10% acetic acid.
Three unfed female midguts and 0.75 fed female midguts were evaluated in duplicate in several protease substrate gels. Each gel was cut in half. Half was processed as described in Example 2, while the other half contained protease inhibitors in all incubation buffers. The following inhibitors were evaluated:
Mixed-sex fed flea midguts were processed as described in U.S. Pat. No. 5,356,622, ibid. Aliquots of several steps of the procedure were evaluated by loading an equivalent of 0.4 midguts per lane of a protease substrate gel as described in Example 2. Samples were from the low speed supernatant (lanes 2 and 9), sonicated midguts (lanes 3 and 10), high speed supernatant (lanes 4 and 11), combined low and high speed supernatants (FGS) (lanes 5 and 12) and the high speed pellet (lanes 6 and 13). Lanes 7 and 8 contained 50 nanograms (ng) of trypsin as a control. Duplicate lanes were evaluated. The gel was cut in half, and lanes 1-7 were processed as described in Example 2, and lanes 8-14 were processed with 100 μg/ml soybean trypsin inhibitor in all the incubation buffers.

Another series concerns adult fleas. The experiment in a line: Flea feeding system: viability and fecundity of fleas fed blood containing protease inhibitors. Format: in vivo. To be noted: for Fecundity Days 1-7 / Adult Survival Female / Adult Survival Male / Adult Survival Total: percent of corresponding control group; for reduction in adult viability: not statistically significant. As to the method:
This Example evaluates the effect of a number of protease inhibitors on flea viability and fecundity in a flea feeding system as described by Wade et al. ibid.
Protease inhibitor compounds were tested in groups of 3 to 6 including appropriate control groups. Inhibitors were not tested in groups of common inhibition types. Rather, they were tested in groups based on the diluent needed to dissolve them. (AEBSF, aprotinin, bestatin, leupeptin, phosphoramidon, soybean trypsin inhibitor and soybean trypsin/chymotrypsin inhibitor were dissolved in water; E-64 and pepstatin were dissolved in ethanol). This reduced the number of control (diluent only) groups needed within a particular assay. Inhibitor concentrations were chosen such that the lower concentration used was within the range recommended by the supplier for that inhibitor. The higher concentration was typically 10 times above the lower concentration and was used to look for dose response.
The general protocol for all of the assays was as follows: Approximately 2000 newly emerged adult fleas were placed in feeding chambers to feed on normal blood for about 24 to 48 hr. The fleas were prefed for two reasons: The first was to be certain that only fleas that would feed in the feeding system were used in the comparative study.
The prefed fleas were placed in "minifeeder" feeding chambers at a ratio of about 80 female fleas to about 20 male fleas for a total of about 100 fleas per chamber. Actual total number of fleas per chamber varied from about 90 to 125 fleas. […] Three chambers were prepared for each experimental and control group. A fresh blood meal containing the appropriate inhibitor in 3 ml total volume was placed on each chamber daily through the 7 day extent of an assay.
On days 3, 5, and 7 of the assay, surviving adult fleas were transferred to clean chambers. The contents of the original chambers were dissolved in about 40 ml of PBS (phosphate-buffered saline) in a 50 ml Falcon tube. The contents of a given tube were then filtered through a preweighed #1 Whatman filter disk inserted into a vacuum filter. The 50 ml tube and the filter funnel were rinsed with distilled water which was then passed through the filter. Once the chamber contents had been filtered, dead adult fleas were removed from the filter paper and placed in a labelled tube so that they could be counted and sexed. The filter paper was then placed into a preweighed 12×75 polypropylene tube and dried in the SpeedVac for 2.5 hr with the heater on. After drying the filter paper was weighed. The weight of the filter paper and tube was subtracted to obtain the dry weight of the eggs and this value was converted to an estimated number of eggs using the formula y=41384.361x+162.37, where x=dry weight of eggs.
On day 7, adult fleas that had survived the study were frozen, counted and sexed. The numbers were added to the number of male and female fleas that had died during the assay to verify the number of male and female fleas in each chamber at the start of the study.
Female, male and total adult flea survival were calculated for all experimental and control groups on days 3, 5, and 7 of each assay. Additionally, the number of eggs per surviving female was calculated on days 3, 5 and 7. Female fleas found dead on a given collection date were included in the total number of egg-laying females for the days between that date and the previous collection date, providing a conservative estimate of fecundity. Fecundity values were averaged for the three collection dates to obtain an average for each group over 7 days.
Results of these studies are presented below in Table 1 and FIG. 6 through FIG. 9. All survival and fecundity values are presented below as a percent of control value.

A further series has as its system flea aminopeptidase. The experiment in a line: Leu-AMC cleavage by serine protease-depleted flea midgut lysate. Format: biochemical. On the procedure:
The starting material for the isolation of a flea aminopeptidase was a flea midgut lysate preparation that had been depleted of serine proteases by passage over a benzamidine-Sepharose affinity column. To assay for aminopeptidase activity, the synthetic substrate L-Leucine-AMC (Leu-AMC), which releases a fluorescent AMC leaving group upon proteolytic cleavage, was incubated with the serine protease-depleted flea midgut preparation. Aminopeptidase activity was easily detectable with as little as 1.2 μg of lysate, both confirming the presence of an aminopeptidase (as indicated in other Examples herein) and allowing for the detection of aminopeptidase activity in fractions collected throughout subsequent fractionation and purification procedures.

Where [1] appears, read: 1 μg/ml in blood meal, second 1 μg/ml line under E-64.
Where [2] appears, read: 10 μg/ml in blood meal, second 10 μg/ml line under E-64.
Where [3] appears, read: at the concentrations tested in blood meal.
[4] abbreviates: 1 mM pefabloc, 1 mg/ml trypsin/chymotrypsin inhibitor, 1 mg/ml trypsin inhibitor, 1 mM TPCK, 1 μg/ml pepstatin, 10 μg/ml E-64, 10 μg/ml leupeptin, 10 mM EDTA, 86 μg/ml bestatin, lysate about 1.2 μg and about 12 μg.

Where two headings read alike, the source gives them in different places. Square brackets hold non-standard residues; d marks the D form. Peptide text beside a SMILES is read from it. * marks the point of attachment. Sta = CC(C)C[C@H](N)[C@@H](O)CC(=O)O; Isovaleryl = CC(C)CC(=O)*

With `Cl.NCCc1ccc(S(=O)(=O)F)cc1` [AEBSF, 4-2-aminoethyl-benzenesulfonylfluoride-hydrochloride], the “effect on protease activity in protease substrate gel” value with flea midgut proteases is “only inhibitors to have any effect”. In addition, the “Fecundity Days 1-7” value in the series on adult fleas (0.3 mM in blood meal) was 82.4%. The “Fecundity Days 1-7” value in the series on adult fleas (0.5 mM in blood meal) is 95.0%. Also, in the series on adult fleas (5.0 mM in blood meal), the “Adult Survival Female” value is reported as 6.8%, the “Adult Survival Male” value was found to be 0.0%, the “Adult Survival Total” value was 5.6% and the “Fecundity Days 1-7” value is 1.4%. Further, in the series with adult fleas (6.0 mM in blood meal), the “Adult Survival Female” value worked out at 4.1%, the “Adult Survival Male” value amounted to 0.0%, the “Adult Survival Total” value was 3.4% and the “Fecundity Days 1-7” value is listed as 17.2%. Further, the “reduction in flea fecundity” value in the series with adult fleas (about 5 mM to about 6 mM in blood meal) is given as “more than 80%”. Besides, the adult survival entry with adult fleas (about 5 mM to about 6 mM in blood meal, p<0.05) is reported as “reduced to near zero”.

Regarding `CC(C)CC(NC(=O)C1OC1C(=O)O)C(=O)NCCCCNC(=N)N` [E-64, trans-epoxysuccinyl-L-leucylamido-(4-guanidino)butane], the figures for the “Adult Survival Female” value in the series on adult fleas (setting [1]), in the series on adult fleas (1 μg/ml in blood meal) and with adult fleas (setting [2]) were 77.3%, 99.9% and 90.2%, respectively. Further, the “Adult Survival Male” value with adult fleas (setting [1]) is on record as 80.0%; in the series with adult fleas (setting [2]) it was 91.1%. Besides, the “Adult Survival Total” value is on record as 77.5% with adult fleas (setting [1]) and 90.6% with adult fleas (setting [2]). Moreover, the “Fecundity Days 1-7” value in the series on adult fleas (setting [1]) is recorded as 95.2%; in the series with adult fleas (1 μg/ml in blood meal), 109.4%; in the series with adult fleas (setting [2]), 84.1%; in the series with adult fleas (10 μg/ml in blood meal), 177.4%. The effect on fecundity entry in the series with adult fleas (setting [3]) is listed as “no statistically significant reduction in fecundity”. The “total adult flea survival” value in the series with adult fleas (dissolved in grain alcohol, 1 μg/ml in blood) is listed as “small, but significant (p<0.05), reduction”; in the series with adult fleas (in grain alcohol, 10 μg/ml in blood), “not evident”. In addition, the “inhibition of the flea protease that cleaved Leu-AMC” value (shortened to “inhibition”) with flea aminopeptidase (setting [4]) was “Only bestatin inhibited”.

On to `CC(=O)N[C@@H](CC(C)C)C(=O)N[C@@H](CC(C)C)C(=O)N[C@H](C=O)CCCNC(=N)N` [Leupeptin], for which the “effect on protease activity in protease substrate gel” value in the series with flea midgut proteases was “only inhibitors to have any effect”. For the same compound, in the series on adult fleas (5 μg/ml in blood meal), the “reduction in adult viability” value is recorded as 30%, the “Adult Survival Female” value is 71.0%, the “Adult Survival Male” value stood at 61.4% and the “Adult Survival Total” value is recorded as 68.4%. In addition, the “Fecundity Days 1-7” value with adult fleas (5 μg/ml in blood meal) came out at 85.0%. For the same compound, in the series with adult fleas (50 μg/ml in blood meal), the “effect on adult viability” value is on record as “not affected” and the “Fecundity Days 1-7” value is reported as 77.6%. The effect on fecundity result in the series with adult fleas (setting [3]) is “no effect on fecundity”. Also, the “inhibition” value with flea aminopeptidase is “Only bestatin inhibited”.

In the case of `CC(C)CC(=O)N[C@H](C(=O)N[C@H](C(=O)N[C@@H](CC(C)C)[C@@H](O)CC(=O)N[C@@H](C)C(=O)N[C@@H](CC(C)C)[C@@H](O)CC(=O)O)C(C)C)C(C)C` [Pepstatin A] (Isovaleryl-VV[Sta]A[Sta]-OH), in the series on adult fleas (1 μg/ml in blood meal), the “Adult Survival Female” value worked out at 77.6%, the “Adult Survival Male” value is 96.6%, the “Adult Survival Total” value was 80.5% and the “Fecundity Days 1-7” value came to 67.7%. Besides, the reduction in fecundity in the series with adult fleas (1 μg/ml in blood meal, significant (p<0.05)) was 32%. In addition, in the series with adult fleas (10 μg/ml in blood meal), the “Fecundity Days 1-7” value stood at 83.9%. Besides, the “effect on adult viability” value in the series on adult fleas (setting [3]) was “no significant effect on adult viability”. The “inhibition” value in the series with flea aminopeptidase is reported as “Only bestatin inhibited”.

For `CC(C)C[C@H](NP(=O)(O)O[C@@H]1O[C@@H](C)[C@H](O)[C@@H](O)[C@H]1O)C(=O)N[C@@H](Cc1c[nH]c2ccccc12)C(=O)O` [Phosphoramidon], in the series on adult fleas (10 μg/ml in blood meal), the “Adult Survival Female” value was determined as 98.8%, the “Adult Survival Male” value is 95.2%, the “Adult Survival Total” value is reported as 97.8% and the “Fecundity Days 1-7” value is 89.0%. In the series on adult fleas (100 μg/ml in blood meal), the “Adult Survival Female” value stood at 70.2%, the “Adult Survival Male” value is given as 64.6%, the “Adult Survival Total” value stood at 69.7% and the “Fecundity Days 1-7” value came out at 84.9%. The effect on fecundity entry with adult fleas (setting [3]) is on record as “no significant reduction in fecundity”. Moreover, in the series on adult fleas (concentration not given), the “reduction in adult viability” value is given as “about 30%”.

Regarding `Cc1ccc(S(=O)(=O)N[C@@H](Cc2ccccc2)C(=O)CCl)cc1` [TPCK, N-tosyl-L-phenylalanine chloromethyl ketone], the “inhibition” value in the series on flea aminopeptidase (setting [4]) is listed as “Only bestatin inhibited”.

Consider `Cl.NCCc1ccc(S(=O)(=O)F)cc1` [pefabloc], for which, in the series with flea aminopeptidase (setting [4]), the “inhibition” value is given as “Only bestatin inhibited”.
